Measurements reported in ChEMBL document CHEMBL1221360, “Synthesis and structure-activity relationships of sinenxan A derivatives as multidrug resistance reversal agents” (Bioorg Med Chem Lett, 2010).
Active and inactive are the calls of the source. The rule behind the calls is not given here.

Columns and labels:
KB = test: Cytotoxicity against human KB cells; assay type: functional, cell-based
KB/V [1] = test: Reversal of human P-glycoprotein-mediated multidrug resistance in human KB/V cells as reduction of vincristine IC50 at 10 uM; assay type: cell-based
KB/V [2] = test: Partial reversal of human P-glycoprotein-mediated multidrug resistance in human KB/V cells as reduction of vincristine IC50 at 10 uM; assay type: cell-based
KB/V [3] = test: Ratio of compound reversal of P-glycoprotein-mediated multidrug resistance to verapamil reversal of P-glycoprotein-mediated multidrug resistance in human KB/V cells; assay type: cell-based

Row | SMILES | Activity (KB) | Activity (KB/V [1]) | Activity (KB/V [2]) | Ratio (KB/V [3])
1 | C=C1[C@@H](OC(=O)/C=C/c2ccccc2)CC[C@@]2(C)C[C@H](OC(C)=O)C3=C(C)CC[C@@H]([C@@H](OC(C)=O)[C@H]12)C3(C)C | inactive | inactive | – | –
2 | C=C1[C@@H](OC(=O)CCCc2cccs2)CC[C@@]2(C)C[C@H](OC(C)=O)C3=C(C)C(=O)C[C@@H]([C@@H](OC(C)=O)[C@H]12)C3(C)C | inactive | – | Active | –
3 | C=C1[C@@H](OC(=O)CCc2cccs2)CC[C@@]2(C)C[C@H](OC(C)=O)C3=C(C)C(=O)C[C@@H]([C@@H](OC(C)=O)[C@H]12)C3(C)C | inactive | inactive | – | –
4 | C=C1[C@@H](OC(=O)CCC2CCCCC2)CC[C@@]2(C)C[C@H](OC(C)=O)C3=C(C)C(=O)C[C@@H]([C@@H](OC(C)=O)[C@H]12)C3(C)C | inactive | – | Active | –
5 | C=C1[C@@H](OC(=O)c2cccnc2)CC[C@@]2(C)C[C@H](OC(C)=O)C3=C(C)C(=O)C[C@@H]([C@@H](OC(C)=O)[C@H]12)C3(C)C | inactive | – | Active | –
6 | C=C1[C@@H](OC(=O)/C=C\c2ccco2)CC[C@@]2(C)C[C@H](OC(C)=O)C3=C(C)C(=O)C[C@@H]([C@@H](OC(C)=O)[C@H]12)C3(C)C | inactive | Active | – | 1.67
7 | C=C1[C@@H](OC(=O)COc2ccc3ccccc3c2)CC[C@@]2(C)C[C@H](OC(C)=O)C3=C(C)CC[C@@H]([C@@H](OC(C)=O)[C@H]12)C3(C)C | inactive | – | Active | –
8 | C=C1[C@@H](OC(=O)Cc2ccccc2)CC[C@@]2(C)C[C@H](OC(C)=O)C3=C(C)CC[C@@H]([C@@H](OC(C)=O)[C@H]12)C3(C)C | inactive | inactive | – | –
9 | C=C1[C@@H](OC(=O)CCCCc2ccccc2)CC[C@@]2(C)C[C@H](OC(C)=O)C3=C(C)C(=O)C[C@@H]([C@@H](OC(C)=O)[C@H]12)C3(C)C | inactive | inactive | – | –
10 | C=C1[C@@H](OC(=O)[C@@H]2CCCN2)CC[C@@]2(C)C[C@H](OC(C)=O)C3=C(C)C(=O)CC([C@@H](OC(C)=O)[C@H]12)C3(C)C (single isomer, unassigned) | inactive | Active | – | 21.2
11 | C=C1[C@@H](OC(=O)/C=C\c2ccco2)CC[C@@]2(C)C[C@H](OC(C)=O)C3=C(C)CC[C@@H]([C@@H](OC(C)=O)[C@H]12)C3(C)C | inactive | inactive | – | –
12 | C=C1[C@@H](OC(=O)CCCCc2ccccc2)CC[C@@]2(C)C[C@H](OC(C)=O)C3=C(C)CC[C@@H]([C@@H](OC(C)=O)[C@H]12)C3(C)C | inactive | – | Active | –
13 | C=C1[C@@H](OC(=O)Cc2cc(OC)ccc2OC)CC[C@@]2(C)C[C@H](OC(C)=O)C3=C(C)CC[C@@H]([C@@H](OC(C)=O)[C@H]12)C3(C)C | inactive | inactive | – | –
14 | C=C1[C@@H](OC(=O)c2ccco2)CC[C@@]2(C)C[C@H](OC(C)=O)C3=C(C)C(=O)C[C@@H]([C@@H](OC(C)=O)[C@H]12)C3(C)C | inactive | – | Active | –
15 | C=C1[C@@H](OC(=O)Cc2cccc3ccccc23)CC[C@@]2(C)C[C@H](OC(C)=O)C3=C(C)C(=O)C[C@@H]([C@@H](OC(C)=O)[C@H]12)C3(C)C | inactive | inactive | – | –
16 | C=C1[C@@H](OC(=O)COc2ccc3ccccc3c2)CC[C@@]2(C)C[C@H](OC(C)=O)C3=C(C)C(=O)C[C@@H]([C@@H](OC(C)=O)[C@H]12)C3(C)C | inactive | inactive | – | –
17 | C=C1[C@@H](OC(=O)CCCc2ccccc2)CC[C@@]2(C)C[C@H](OC(C)=O)C3=C(C)CC[C@@H]([C@@H](OC(C)=O)[C@H]12)C3(C)C | inactive | inactive | – | –
18 | COc1ccc(CCN(C)CCCC(C#N)(c2ccc(OC)c(OC)c2)C(C)C)cc1OC (stereo not drawn) | inactive | inactive | – | –
19 | C=C1[C@@H](OC(=O)Cc2cccs2)CC[C@@]2(C)C[C@H](OC(C)=O)C3=C(C)C(=O)C[C@@H]([C@@H](OC(C)=O)[C@H]12)C3(C)C | inactive | inactive | – | –
20 | C=C1[C@@H](OC(=O)CCC2CCCCC2)CC[C@@]2(C)C[C@H](OC(C)=O)C3=C(C)CC[C@@H]([C@@H](OC(C)=O)[C@H]12)C3(C)C | inactive | inactive | – | –
21 | C=C1[C@@H](OC(=O)Cc2cccs2)CC[C@@]2(C)C[C@H](OC(C)=O)C3=C(C)CC[C@@H]([C@@H](OC(C)=O)[C@H]12)C3(C)C | inactive | inactive | – | –
22 | C=C1[C@@H](OC(=O)c2cccnc2)CC[C@@]2(C)C[C@H](OC(C)=O)C3=C(C)CC[C@@H]([C@@H](OC(C)=O)[C@H]12)C3(C)C | inactive | – | Active | –
23 | C=C1[C@@H](OC(=O)CCc2ccccc2)CC[C@@]2(C)C[C@H](OC(C)=O)C3=C(C)CC[C@@H]([C@@H](OC(C)=O)[C@H]12)C3(C)C | inactive | inactive | – | –
24 | C=C1[C@@H](OC(=O)CC2CCCCC2)CC[C@@]2(C)C[C@H](OC(C)=O)C3=C(C)C(=O)C[C@@H]([C@@H](OC(C)=O)[C@H]12)C3(C)C | inactive | Active | – | 6.6
25 | C=C1[C@@H](OC(=O)CCc2cccnc2)CC[C@@]2(C)C[C@H](OC(C)=O)C3=C(C)C(=O)C[C@@H]([C@@H](OC(C)=O)[C@H]12)C3(C)C | inactive | Active | – | 1.42
26 | C=C1[C@@H](OC(=O)CCC(=O)O)CC[C@@]2(C)C[C@H](OC(C)=O)C3=C(C)CC[C@@H]([C@@H](OC(C)=O)[C@H]12)C3(C)C | inactive | inactive | – | –
27 | C=C1[C@@H](OC(=O)c2ccco2)CC[C@@]2(C)C[C@H](OC(C)=O)C3=C(C)CC[C@@H]([C@@H](OC(C)=O)[C@H]12)C3(C)C | inactive | inactive | – | –
